Experimental data as given in PMC11676667, “Pharmacokinetics of Oral Cannabinoid Δ8-Tetrahydrocannabivarin and Its Main Metabolites in Healthy Participants” (Pharmaceuticals, 2024).
Where two headings read alike, the source gives them in different places.

Assay: Plasma pharmacokinetics after single oral dose of Δ8-THCV in MCT oil (LC-MS/MS, non-compartmental analysis)
Format: in vivo, human
Design: Clast (last quantifiable concentration): unit not given here
Settings: for Clast (last quantifiable concentration) / tlast (time to last quantifiable concentration) / concentration at 0.5 h / concentration at 1 h / concentration at 2 h / concentration at 4 h / concentration at 6 h / concentration at 8 h / AUC(0-t) / Cmax / MRT / Tmax: plasma; for plasma concentration: Predose; for concentration at 0.5 h / concentration at 1 h / concentration at 2 h / concentration at 4 h / concentration at 6 h / concentration at 8 h / AUC(0-t) / Cmax / MRT / Tmax: human; for concentration at 0.5 h / concentration at 1 h / concentration at 2 h / concentration at 4 h / concentration at 6 h / concentration at 8 h: oral; for AUC(0-t) / Cmax / MRT / Tmax: po; for MRT: read-out: MRT (mean residence time); for Tmax: read-out: tmax
Description: The study was a two-phase, dose-ranging, placebo-controlled trial in 21 healthy participants to assess the safety, tolerability, PK, and PD of an oral formulation of Δ8-THCV. A detailed description of the study was published elsewhere. The study product was a medium-chain triglyceride (MCT) oil oral formulation of Δ8-THCV at a concentration of 50 mg/mL. […] MCT oil was used as placebo.
Twenty-one participants were enrolled in the clinical study and plasma samples from 15 participants were sent to our laboratory for pharmacokinetic evaluation. Of these, 3 participants were enrolled in Phase 1, an unblinded, placebo-controlled, single ascending dose design and 12 were enrolled in Phase 2, a double-blind, randomized, placebo-controlled, within-participant crossover design. At each study session, participants received one of the following oral doses: placebo, 12.5 mg, 25 mg, 50 mg, 100 mg, and 200 mg of the aforementioned Δ8-THCV formulation in MCT. Study visits were separated by a washout period of a minimum of one week and maximum of 28 days. Participants entered the research facility the night before the session and received the study product in the morning after a standardized high-fat, high-calorie breakfast. PK blood samples included in this analysis were collected prior to dosing and 0.5, 1, 2, 4, 6, and 8 h after dose. Immediately following collection into K2EDTA tubes, blood samples were placed on wet ice, centrifuged, and plasma was immediately frozen at −80 °C until shipment to the bioanalytical laboratory (iC42 Clinical Research and Development, University of Colorado, Aurora, CO, USA) on dry ice.
Plasma samples were analyzed using a validated high-performance liquid chromatography–tandem mass spectrometry (LC-MS/MS) assay. The assay included Δ8-THCV and its main metabolites 11-OH-Δ8-THCV and Δ8-THCV-COOH, Δ9-THCV and its main metabolite Δ9-THCV-COOH, and Δ9-THC and Δ8-THC as well as their main metabolites (Figure 3). The complete list of analyzed compounds and a summary of the key performance parameters of the assay are presented in Appendix A and Table A1 and Table A2. […] For the PK analysis, concentrations below the lower limit of quantification were set to 0 ng/mL. PK parameters were calculated using non-compartmental analysis (Phoenix WinNonlin version 8.4., Certara, Princeton, NJ, USA). Statistical analysis was carried out using GraphPad Prism (version 10, Boston, MA, USA).

[1] = 100 mg single oral Δ8-THCV in MCT oil, Mean (±SD)
[2] = 100 mg single oral Δ8-THCV in MCT oil, Median (Range)
[3] = 200 mg single oral Δ8-THCV in MCT oil, Mean (±SD)
[4] = 200 mg single oral Δ8-THCV in MCT oil, Median (Range)
[5] = 12.5 mg, 12.5 mg Δ8-THCV dose, Mean (SD, %CV)
[6] = 12.5 mg, 12.5 mg Δ8-THCV dose, Median (IQ Range)
[7] = 25 mg, 25 mg Δ8-THCV dose, Mean (SD, %CV)
[8] = 25 mg, 25 mg Δ8-THCV dose, Median (IQ Range)
[9] = 50 mg, 50 mg Δ8-THCV dose, Mean (SD, %CV)
[10] = 50 mg, 50 mg Δ8-THCV dose, Median (IQ Range)
[11] = 100 mg, 100 mg Δ8-THCV dose, Mean (SD, %CV)
[12] = 100 mg, 100 mg Δ8-THCV dose, Median (IQ Range)
[13] = 200 mg, 200 mg Δ8-THCV dose, Mean (SD, %CV)
[14] = 200 mg, 200 mg Δ8-THCV dose, Median (IQ Range)
[15] = 100 mg, 100 mg single oral Δ8-THCV in MCT oil, Mean (±SD)
[16] = 100 mg, 100 mg single oral Δ8-THCV in MCT oil, Median (Range)
[17] = 200 mg, 200 mg single oral Δ8-THCV in MCT oil, Mean (±SD)
[18] = 200 mg, 200 mg single oral Δ8-THCV in MCT oil, Median (Range)

SMILES: CCCCCc1cc(O)c2c(c1)OC(C)(C)[C@@H]1CC=C(C(=O)O)CC21 (single isomer, unassigned; (+)) [Δ8-THC-COOH, (+)-11-nor-Δ8-THC-9-carboxylic acid]
- Clast (last quantifiable concentration) [1]: 1.3 (±0.2)
- tlast (time to last quantifiable concentration) [1]: 5.8 (±1.3)
- Clast (last quantifiable concentration) [2]: 1.3 (1–1.7)
- tlast (time to last quantifiable concentration) [2]: 6 (4–8)
- Clast (last quantifiable concentration) [3]: 1.9 (±0.6)
- tlast (time to last quantifiable concentration) [3]: 7.5 (±1.2)
- Clast (last quantifiable concentration) [4]: 1.8 (1.1–2.8)
- tlast (time to last quantifiable concentration) [4]: 8 (4–8)
- plasma concentration (12.5 mg Δ8-THCV dose, Mean (SD, %CV)): 0 (±0, --) ng/mL
- plasma concentration (12.5 mg Δ8-THCV dose, Median (IQ Range)): 0 (0–0) ng/mL
- plasma concentration (25 mg Δ8-THCV dose, Mean (SD, %CV)): 0 (±0, --) ng/mL
- plasma concentration (25 mg Δ8-THCV dose, Median (IQ Range)): 0 (0–0) ng/mL
- plasma concentration (50 mg Δ8-THCV dose, Mean (SD, %CV)): 0 (±0, --) ng/mL
- plasma concentration (50 mg Δ8-THCV dose, Median (IQ Range)): 0 (0–0) ng/mL
- plasma concentration (100 mg Δ8-THCV dose, Mean (SD, %CV)): 0 (±0, --) ng/mL
- plasma concentration (100 mg Δ8-THCV dose, Median (IQ Range)): 0 (0–0) ng/mL
- plasma concentration (200 mg Δ8-THCV dose, Mean (SD, %CV)): 0 (±0, --) ng/mL
- plasma concentration (200 mg Δ8-THCV dose, Median (IQ Range)): 0 (0–0) ng/mL
- concentration at 0.5 h [5]: 0 µg/mL
- concentration at 0.5 h [6]: 0 µg/mL
- concentration at 1 h [5]: 0 µg/mL
- concentration at 1 h [6]: 0 µg/mL
- concentration at 2 h [5]: 0 ng/mL
- concentration at 2 h [6]: 0 ng/mL
- concentration at 4 h [5]: 0 ng/mL
- concentration at 4 h [6]: 0 ng/mL
- concentration at 6 h [5]: 0 ng/mL
- concentration at 6 h [6]: 0 ng/mL
- concentration at 8 h [5]: 0 ng/mL
- concentration at 8 h [6]: 0 ng/mL
- concentration at 0.5 h [7]: 0 µg/mL
- concentration at 0.5 h [8]: 0 µg/mL
- concentration at 1 h [7]: 0 µg/mL
- concentration at 1 h [8]: 0 µg/mL
- concentration at 2 h [7]: 0 ng/mL
- concentration at 2 h [8]: 0 ng/mL
- concentration at 4 h [7]: 0 ng/mL
- concentration at 4 h [8]: 0 ng/mL
- concentration at 6 h [7]: 0 ng/mL
- concentration at 6 h [8]: 0 ng/mL
- concentration at 8 h [7]: 0 ng/mL
- concentration at 8 h [8]: 0 ng/mL
- concentration at 0.5 h [9]: 0 µg/mL
- concentration at 0.5 h [10]: 0 µg/mL
- concentration at 1 h [9]: 0 µg/mL
- concentration at 1 h [10]: 0 µg/mL
- concentration at 2 h [9]: 0 ng/mL
- concentration at 2 h [10]: 0 ng/mL
- concentration at 4 h [9]: 0 ng/mL
- concentration at 4 h [10]: 0 ng/mL
- concentration at 6 h [9]: 0 ng/mL
- concentration at 6 h [10]: 0 ng/mL
- concentration at 8 h [9]: 0 ng/mL
- concentration at 8 h [10]: 0 ng/mL
- concentration at 0.5 h [11]: 0 µg/mL
- concentration at 0.5 h [12]: 0 µg/mL
- concentration at 1 h [11]: 0 µg/mL
- concentration at 1 h [12]: 0 µg/mL
- concentration at 2 h [11]: 0 ng/mL
- concentration at 2 h [12]: 0 ng/mL
- concentration at 4 h [11]: 0.4 ng/mL
- concentration at 4 h [12]: 0 ng/mL
- concentration at 6 h [11]: 0.6 ng/mL
- concentration at 6 h [12]: 0 ng/mL
- concentration at 8 h [11]: 0.1 ng/mL
- concentration at 8 h [12]: 0 ng/mL
- concentration at 0.5 h [13]: 0 µg/mL
- concentration at 0.5 h [14]: 0 µg/mL
- concentration at 1 h [13]: 0 µg/mL
- concentration at 1 h [14]: 0 µg/mL
- concentration at 2 h [13]: 0.4 ng/mL
- concentration at 2 h [14]: 0 ng/mL
- concentration at 4 h [13]: 1.3 ng/mL
- concentration at 4 h [14]: 1.7 ng/mL
- concentration at 6 h [13]: 1.8 ng/mL
- concentration at 6 h [14]: 2 ng/mL
- concentration at 8 h [13]: 1.6 ng/mL
- concentration at 8 h [14]: 1.6 ng/mL
- AUC(0-t) [15]: 2.4 ng·h/mL
- Cmax [15]: 1.4 ng/mL
- AUC(0-t) [16]: 1.6 ng·h/mL
- Cmax [16]: 1.4 ng/mL
- MRT [15]: 5.2 h
- Tmax [15]: 5 h
- MRT [16]: 5.3 h
- Tmax [16]: 5 h
- AUC(0-t) [17]: 8.1 ng·h/mL
- Cmax [17]: 2.4 ng/mL
- AUC(0-t) [18]: 9.6 ng·h/mL
- Cmax [18]: 2.5 ng/mL
- MRT [17]: 5.7 h
- Tmax [17]: 6.1 h
- MRT [18]: 5.8 h
- Tmax [18]: 6 h
- number of positive plasma samples (of 504 plasma samples from 15 participants after oral Δ8-THCV): 49
- concentration in representative plasma sample (one subject after oral Δ8-THCV in MCT oil, Figure A1): 1.4 ng/mL
